Turning to `CCc1ccc(CC)cc1`, the logP was determined as 4.22.

Take `CC(C)(C)C1CCCCC1`: the logP is 5.04.

Compound `C/C=C/CCCCC` showed a log partition coefficient (logP) of 4.51.

For the compound `Oc1cccc2c1CCCC2`, the log partition coefficient (logP) was determined as 2.87.

On to `OCc1ccc2ccccc2c1`, for which the logP amounted to 2.42.

As for `CCCCCCc1ccc(O)cc1O`, the logP turned out to be 3.07.

In the case of `Cc1cccc2[nH]ccc12`, the log partition coefficient (logP) was 2.54.

`CCc1ccccc1O` registered a logP of 2.36.

For the compound `CCc1cccc(CC)c1`, the log partition coefficient (logP) worked out at 4.16.

`CCCCCCCCCCCCc1ccc(O)cc1O` came in with a logP of 5.32.

Compound `Oc1ccc(O)c2ccccc12` registered a lipophilicity (logP) of 2.24.

On to `CCCCCCCc1ccccc1`, for which the log partition coefficient (logP) is 5.37.

As to `Cc1[nH]c2ccccc2c1C`, the lipophilicity (logP) was 2.51.

Consider `CCc1ccccc1CC`, for which the logP is 4.1.

As to `CC1CCCCC1`, the logP worked out at 4.17.

Take `CCn1c2ccccc2c2ccccc21`: the logP was 3.97.

`OCc1c2ccccc2cc2ccccc12` showed a lipophilicity (logP) of 3.04.

Regarding `O=Cc1ccc(Cl)cc1`, the logP is 2.34.

Regarding `CCC1CCCCC1`, the lipophilicity (logP) amounted to 4.56.

Usually logP stands for the decadic logarithm of the partition coefficient of the neutral form, usually between octanol and water.
